This note sets out measurements from patent publication US5932717A, “Methods of obtaining DNA-RNA hybrids from sturgeon milt” (priority 1994, dated 1999).

What is called viability is a per cent measure of how many cells are alive, often set against a control. Low values mean more harm to the cells, high ones less harm to the cells.

In data set [1] the test system is MT-4 cell. To be noted: MT-4, 5 ug/ml.
Experimental: (§1) The cells.--A continuous lymphoblast line of MT-4 cells was used in the study. The cells were propagated in a concentration of 0.2×10^6 cells/ml in RPMI-1640 medium with 15% fetal calf serum, 300 μg/ml L-glutamine and 100 μg/ml gentamycine. The cells were cultivated in suspension in 24-well plates of NUNCLON Company.
(§2) The viability of the cells was determined by staining with 0.4% trypan blue.
(§3) Cytotoxicity of the preparations was determined in 24-well plastic plates. Each well of the panel was filled with 1 ml of cell suspension in a concentration 0.2×10^6 cells/ml after which to different wells various doses of chemopreparations were added: 1600, 1000, and 400 μg/ml. After treatment of the cells with the chemopreparations the panels with the cells were placed into a thermostat and incubated at 37° C. in an atmosphere of 5% CO2 and 98% humidity for 3-5 days. At the end of this term the results were read by the number of live and dead cells in the individual wells of the plate.
A short description of data set [2]: in vitro. The note with it: human, mt-4 cells.
Experimental: as §1, §2, §3

As for `Cc1cn([C@H]2C[C@H](N=[N+]=[N-])[C@@H](CO)O2)c(=O)[nH]c1=O` [Azidothymidine, azidothymidine], the “Cell concentration per ml × 10^6” value in data set [1] (cell control 0.56) stood at 0.16 per ml × 10^6. This compound showed a Proliferation index in data set [1] (cell control 2.80) of 1.0. Besides, in data set [2], the viability worked out at 17.5%.
